Values of other authors as cited in patent USRE48948E1, “Clonidine compounds in a biodegradable polymer” (priority 2008, dated 2022).
Where a name gives a salt, the structure may show the parent alone.

What was measured:
[1] = tested on: post-surgical knee pain; conditions: Intra-articular administration of 150 mcg
[2] = in vivo

Row | Compound | relief of post-surgical knee pain [1] | plasma concentration above which antihypertensive effects become evident [2] | systemic concentration associated with spinal analgesia [2]
1 | Clc1cccc(Cl)c1N=C1NCCN1 [clonidine HCL] | as effective as morphine |  | 
2 | Clc1cccc(Cl)c1N=C1NCCN1 [clonidine, 2,6-dichloro-N-2-imidazolidinyldenebenzenamine] |  | above 500 pg/mL | approximately 2 ng/mL
